Experimental data taken from patent EP2594271A1, “2-[(3,5-difluoro-3'-methoxy-1,1'-biphenyl-4-yl)amino]nicotinic acid for the treatment of psoriasis” (Almirall, S.A., priority 2011, dated 2013).
“Also recorded” adds a separate entry of the source.

What was measured:
[1] = system: peripheral blood mononuclear cells; experiment: in vitro assay using peripheral blood mononuclear cells; assay type: cell-based; details: compared with leflunomide
epidermal hyperplasia = experiment: rat model of TPA-induced epidermal hyperplasia; assay type: in vivo, Wistar rats; details: rat dorsal skin
Description: A rat model of epidermal hyperplasia was used to test the pharmacological activity of 2-[(3,5-difluoro-3'-methoxy-1,1'-biphenyl-4-yl)amino]nicotinic acid.
Wistar rats (200- 250 g) were obtained from Harland (Sant Feliu de Codines, Spain) and maintained in standard Chow diet with light:dark cycles and allowed to feed ad libitum during all procedures. TPA (12-O-tetradecanoylphorbol-13-acetate) was purchased from Sigma Chemicals and a stock solution of 10 mg/ml was prepared in acetone.
On the morning of day 1, the back of each animal (n=5) was shaved so that at least three 2x2 sq cm nude skin areas were uncovered. Six hours later, 200 µL of acetone (vehicle) or a solution of TPA ([…]) in acetone was applied onto the skin by employing a silicone pad in which three 2x2 sq cm areas had been cut out. Area A received acetone (vehicle), whereas B and C received TPA. Twenty-four hours after TPA application, a solution of the active ingredient 2-[(3,5-difluoro-3'-methoxy-1,1'-biphenyl-4-yl)amino]nicotinic acid (1% in acetone) was applied to area C, whereas the remainder areas received acetone. Treatment continued for 7 days with daily application of 2-[(3,5-difluoro-3'-methoxy-1,1'-biphenyl-4-yl)amino]nicotinic acid or acetone. Six hours after last application, animals were sacrificed and skin was excised and processed for histological examination using H/E staining. Hyperplasia was evaluated following a score of 0 (normal skin thickness, 2-3 layers) to 3 (marked hyperplastic epidermis, >8 cell layers) by a blinded expert pathologist.

[2] = design: species or system mice; details: mouse, in vivo, ip
psoriasis = details: 190 subjects with active psoriatic arthritis and psoriasis, 24 weeks; people with mild to moderate psoriasis; cited from earlier work
[3] = topical 1% in acetone, 7 applications, histology day 8

Structure (SMILES)	potency [1]	inflammation induced by TPA (dermal) (epidermal hyperplasia; [3])	mixed perivascular mononuclear infiltration (macrophages, lymphocytes and mastocytes) (epidermal hyperplasia; [3])	hyperplasia (histological score 0 to 3) (epidermal hyperplasia; topical once daily application of 1% in acetone for 7 days, H/E staining, day 8)	levels of bilirrubin in plasma [2]	levels of transaminases in plasma [2]	benefit compared with placebo (psoriasis)
COc1cccc(-c2cc(F)c(Nc3ncccc3C(=O)O)c(F)c2)c1 [2-[(3,5-difluoro-3'-methoxy-1,1'-biphenyl-4-yl)amino]nicotinic acid]	much higher potency than leflunomide	counteracts; also recorded: able to reduce epidermal hyperplasia and dermal inflammation	greatly diminished	reverted; also recorded: counteracts; also recorded: able to reduce epidermal hyperplasia	does not show an increase	does not show an increase	
Cc1oncc1C(=O)Nc1ccc(C(F)(F)F)cc1 [leflunomide, 4-Isoxazolecarboxamide, 5-methyl-N-[4-(trifluoromethyl)phenyl]-]							only a moderate benefit compared with placebo
